Data reported in patent publication US20230126310A1 (priority 2020, published 2023).
Counter-ions that a name gives are not always drawn. Like-named read-outs stand apart in the source and are kept apart here. Peptide text beside a SMILES is read from it.

System: SARS-CoV-2
Assay: microbe, parasite or virus in culture
Conditions: Severe acute respiratory syndrome coronavirus 2, Caco-2, 48 h; for inhibition at 10 µM: read-out: % Inh. (% Inhibition of SARS-CoV-2)

SMILES | inhibition at 10 µM [%] | IC50 [µM] | IC50 (read-out: pIC50 (converted)) [µM]
CNC(=O)c1cc(Oc2ccc(NC(=O)Nc3cc(C(C)(C)C)nn3-c3ccc4ncccc4c3)c(F)c2)ccn1 [DCC-2036 (Rebastinib), Rebastinib] | 70 |  | 
O=C(NCc1ccncc1)C12CC3CC(C1)CC(c1ccc(Cl)cc1)(C3)C2 [ABC294640] | 81.4 | 38.2 | 38
CCc1cc2cc(OC)c(OC)cc2c(Cc2ccccc2)n1 [Moxaverine] | 68.7 |  | 
OC1(c2ccc(Cl)c(C(F)(F)F)c2)CCN(CCCC(c2ccc(F)cc2)c2ccc(F)cc2)CC1 [PENFLURIDOL] | 85.9 |  | 
NCCC(Oc1ccc(C(F)(F)F)cc1)c1ccccc1 (centres unmarked) [norfluoxetine] | 95 |  | 
Cc1cc(C(C#N)c2ccc(Cl)cc2)c(Cl)cc1NC(=O)c1cc(I)cc(I)c1O (centres unmarked) [CLOSANTEL] | 80 |  | 
O=C1NC(c2cccc([N+](=O)[O-])c2)=CCN1c1ccccc1O [icilin] | 55.1 |  | 
C[C@@H]([C@@H](O)c1ccc(O)cc1)N1CCC(O)(c2ccccc2)CC1 [CP 101606] | 54.3 |  | 
O=C1NC(=S)NC(=O)C1C(=O)Nc1ccccc1 [merbarone] | 50.4 |  | 
COc1ccc(CCc2nc3cc(-c4c(C)noc4C)ccc3n2C[C@H](C)N2CCOCC2)cc1Cl [SGC-CBP30] | 59.2 |  | 
COc1ccc(N(C)c2nc(C)nc3ccccc23)cc1 [verubulin] | 50.9 |  | 
CC(C)C[C@H](NC(=O)[C@@H]1CCCN1)C(=O)NCC(N)=O [prolylleucylglycinamide] (H-Pro-Leu-Gly-NH2) | 70.6 |  | 
CN1C[C@H](CNC(=O)OCc2ccccc2)C[C@@H]2c3cccc4c3c(cn4C)C[C@H]21 [METERGOLINE] | 54.6 |  | 
CCCCCCCCCCCCCCCC[N+](C)(C)CCN(Cc1ccc(OC)cc1)c1ncccn1 [thonzonium bromide] | 76.4 |  | 
O=C(c1ccc(F)c(F)c1Nc1ccc(I)cc1F)N1CC(O)([C@@H]2CCCCN2)C1 [Cobimetinib] | 61.6 |  | 
C[C@]12CC[C@H](O)C[C@H]1CC[C@@H]1[C@@H]2CC[C@]2(C)[C@@H](C3=CC(=O)OC3)CC[C@]12O [digitoxigenin] | 60 |  | 
Cc1ccccc1-n1c(CF)nc2ccc(N)cc2c1=O [Afloqualone] | 50.1 |  | 
N[C@H](C(=O)O)c1ccc(O)cc1 [oxfenicine] | 50.7 |  | 
O=C(/C=C/c1cccnc1)NCCCCC1CCN(C(=O)c2ccccc2)CC1 [FK-866] | 50.9 |  | 
NC(=O)NS(=O)(=O)c1ccc(N)cc1 [SULFACARBAMIDE] | 58.1 |  | 
CO[C@H]1C[C@H](O[C@@H]2/C(C)=C/C[C@@H]3C[C@@H](C[C@]4(CC[C@H](C)[C@@H](C5CCCCC5)O4)O3)OC(=O)[C@@H]3C=C(C)/C(=N/O)[C@H]4OC/C(=C\C=C\[C@@H]2C)[C@]43O)O[C@@H](C)[C@@H]1O [SELAMECTIN] | 68.2 |  | 
CN(C)CC/C=C1/c2ccccc2Sc2ccc(Cl)cc21 [CHLORPROTHIXENE HYDROCHLORIDE] | 55.6 |  | 
COC(=O)C1=C(C)NC(C)=C(C(=O)OCCCN2CCC(c3ccccc3)(c3ccccc3)CC2)[C@@H]1c1cccc([N+](=O)[O-])c1 [dexniguldipine] | 97.6 | 35.8 | 35.5

SMILES | inhibition at 10 µM [%] | IC50 [µM] | IC50 (read-out: pIC50 (converted)) [µM]
COc1ccc(C(Cl)=C(c2ccc(OC)cc2)c2ccc(OC)cc2)cc1 [chlorotrianisene] | 55.3 |  | 
Cn1cnc2c1c(=O)[nH]c(=O)n2C [THEOBROMINE] | 52.4 |  | 
COc1cc2c(Nc3ccc(Br)cc3F)ncnc2cc1OCC1CCN(C)CC1 [Vandetanib (ZD6474), Vandetanib] | 51.2 |  | 
COc1cc2ncnc(Nc3ccc(F)c(Cl)c3)c2cc1NC(=O)/C=C/CN1CCCCC1 [Dacomitinib (PF299804, PF-00299804), Dacomitinib] | 85.5 |  | 
O=C(Nc1ccc(OC(F)(F)F)cc1)c1sccc1NCc1ccnc2ccccc12 [OSI-930] | 100 |  | 
CC(=O)OCC(=O)[C@@]1(O)CC[C@H]2[C@@H]3CCC4=CC(=O)C=C[C@]4(C)[C@@]3(F)[C@@H](O)C[C@@]21C [isoflupredone-acetate] | 80.6 |  | 
CS[C@H]1SC[C@H]2C(=O)N(C)[C@@H](C(C)C)C(=O)OC[C@@H](NC(=O)c3cnc4ccccc4n3)C(=O)N[C@@H](C)C(=O)N(C)[C@@H]1C(=O)N(C)[C@@H](C(C)C)C(=O)OC[C@@H](NC(=O)c1cnc3ccccc3n1)C(=O)N[C@@H](C)C(=O)N2C [Echinomycin] | 77.5 |  | 
Cc1ccnc2c1CCCC2C(N)=S (centres unmarked) [isotiquimide] | 50 |  | 
C[C@@]1(O)[C@H](O)[C@@H](CO)O[C@H]1n1ccc(N)nc1=O [NM107, 2′-C-methylcytidine, 2′-C-methylcytidine] | 60.1 |  | 
CC(C)[C@]12O[C@H]1[C@@H]1O[C@]13[C@]1(O[C@H]1C[C@H]1C4=C(CC[C@@]13C)C(=O)OC4)[C@@H]2O [Triptolide] | 90.7 |  | 
CCn1c(=O)c(-c2cc[nH]n2)cc2c(C)nc(N)nc21 [Voxtalisib] | 84.3 |  | 
NCCNC(=O)c1ccc(Cl)cn1 [lazabemide] | 67.9 |  | 
Cc1cc(N)c2ccccc2[n+]1CCCCCCCCCC[n+]1c(C)cc(N)c2ccccc21 [DEQUALINIUM CHLORIDE] | 65.6 |  | 
CCCC1O[C@@H]2C[C@H]3[C@@H]4CCC5=CC(=O)C=C[C@]5(C)[C@H]4[C@@H](O)C[C@]3(C)[C@]2(C(=O)CO)O1 (some centres unmarked) [budesonide] | 74.4 |  | 
N=C(N)c1ccc(OCCCCCOc2ccc(C(=N)N)cc2)cc1 [PENTAMIDINE ISETHIONATE] | 54.6 |  | 
C=CC(=O)Nc1cccc(Nc2nc(Nc3ccc(N4CCN(C(C)=O)CC4)cc3OC)ncc2C(F)(F)F)c1 [Rociletinib (CO-1686, AVL-301), Rociletinib] | 84.9 |  | 
CC(=O)OCC1=C(C(=O)O)N2C(=O)[C@@H](NC(=O)Cc3cccs3)[C@H]2SC1 [Cephalothin] | 53.7 |  | 
CCN(CC)CCNc1ccc(CO)c2sc3ccccc3c(=O)c12 [Hycanthone] | 60.2 |  | 
CC(C)(O)CC(=O)NCCn1ccc2ncnc(Nc3ccc(Oc4cccc(C(F)(F)F)c4)c(Cl)c3)c21 [TAK-285] | 73 |  | 
Oc1cccc(-c2c3nc(c(-c4cccc(O)c4)c4ccc([nH]4)c(-c4cccc(O)c4)c4nc(c(-c5cccc(O)c5)c5ccc2[nH]5)CC4)C=C3)c1 [Temoporfin] | 85.9 |  | 
Cc1cc(C)c2c(c1)[C@@H](N(Cc1cc(C(F)(F)F)cc(C(F)(F)F)c1)c1nnn(C)n1)CCCN2C[C@H]1CC[C@H](C(=O)O)CC1 [Evacetrapib (LY2484595), Evacetrapib] | 94.9 | 26.7 | 26.9
CNC(=O)c1cccc(-c2ccc3c(N4CCOC[C@@H]4C)nc(N4CCOC[C@@H]4C)nc3n2)c1 [Vistusertib (AZD2014), Vistusertib] | 112 |  | 
Clc1ccc(COC(Cn2ccnc2)c2ccc(Cl)cc2Cl)cc1 (centres unmarked) [ECONAZOLE NITRATE] | 87.3 |  | 

SMILES | inhibition at 10 µM [%] | IC50 [µM] | IC50 (read-out: pIC50 (converted)) [µM]
CCCCNc1cc(C(=O)O)cc(S(N)(=O)=O)c1Oc1ccccc1 [BUMETANIDE] | 87.5 |  | 
Cc1c(O)cccc1C(=O)N[C@@H](CSc1ccccc1)[C@H](O)CN1C[C@H]2CCCC[C@H]2C[C@H]1C(=O)NC(C)(C)C [Nelfinavir Mesylate] | 88.6 | 2.65 | 2.63
OC[C@H]1O[C@@H](n2cnc3c(NC4CCCC4)nc(Cl)nc32)[C@H](O)[C@@H]1O [2-chloro-N6-cyclopentyladenosine] | 57.7 |  | 
C[C@@H](c1nc(-c2ccc(C#N)cc2)cs1)[C@](O)(Cn1cncn1)c1cc(F)ccc1F [Isavuconazole] | 92.8 |  | 
Cc1ccc(C(=O)N(CCCN)[C@@H](c2nc3cc(Cl)ccc3c(=O)n2Cc2ccccc2)C(C)C)cc1 [Ispinesib (SB-715992), Ispinesib] | 91.9 |  | 
NC(=O)N/N=C/c1ccc([N+](=O)[O-])o1 [NITROFURAZONE] | 87.3 |  | 
COc1c(O[C@@H]2O[C@H](CO)[C@@H](O)[C@H](O)[C@H]2O)cc2c(c1OC)-c1ccc(SC)c(=O)cc1[C@@H](NC(C)=O)CC2 [thiocolchicoside] | 54.2 |  | 
Oc1c(Cl)cc(Cl)c(Cl)c1Cc1c(O)c(Cl)cc(Cl)c1Cl [HEXACHLOROPHENE] | 92.9 |  | 
CCOc1cc2ncc(C#N)c(Nc3ccc(F)c(Cl)c3)c2cc1NC(=O)/C=C/CN(C)C [Pelitinib (EKB-569), Pelitinib] | 83.4 |  | 
C[C@H](/C=C/[C@H](C)C(C)(C)O)[C@H]1CC[C@H]2/C(=C/C=C3C[C@@H](O)C[C@H](O)C3)CCC[C@]12C [PARICALCITOL] | 86 |  | 
CCN1CCN(Cc2ccc(-c3cc4c(N[C@H](C)c5ccccc5)ncnc4[nH]3)cc2)CC1 [AEE788] | 90.9 |  | 
C/C=C/C=C/C(=O)O [sorbic-acid] | 65.5 |  | 
COc1ccccc1N1CCN(CC(O)COc2cccc3ccccc23)CC1 (centres unmarked) [NAFTOPIDIL] | 90.6 |  | 
Nc1c2ccccc2nc2ccccc12 [AMINACRINE] | 64.1 |  | 
Clc1ccccc1C(c1ccccc1)(c1ccccc1)n1ccnc1 [CLOTRIMAZOLE] | 81.7 |  | 
C=CC(N)CCC(=O)O (centres unmarked) [Vigabatrin] | 52.5 |  | 
CCCCN(CC)c1nc(C)nc2c1c(C)c(C)n2-c1c(C)cc(C)cc1C [antalarmin] | 59 |  | 
C[N+](C)(C)CC(=O)O [BETAINE HYDROCHLORIDE] | 95.7 |  | 
COc1cc(N2CCC(N3CCN(C)CC3)CC2)ccc1Nc1ncnc(Nc2ccccc2S(=O)(=O)C(C)C)n1 [ASP3026] | 62.2 |  | 
COc1cc2nc(N3CCN(C(=O)c4ccco4)CC3)nc(N)c2cc1OC [PRAZOSIN HYDROCHLORIDE] | 58 |  | 
FC(F)(F)c1ccc(/C=C/c2nc(COc3ccc(CCCCn4ccnn4)cc3)co2)cc1 [mubritinib] | 82.2 |  | 
Cc1c(-c2ccc(-c3ccccc3F)cc2)nc2ccc(F)cc2c1C(=O)O [Brequinar sodium salt hydrate] | 61 |  | 
CN(C)C(=O)C(CCN1CCC(O)(c2ccc(Cl)cc2)CC1)(c1ccccc1)c1ccccc1 [LOPERAMIDE HYDROCHLORIDE] | 58.9 |  | 
